Data reported in ChEMBL document CHEMBL2331172, “Pyrrole and furan oligoglycosides from the starfish Asterina batheri and their inhibitory effect on the production of pro-inflammatory cytokines in lipopolysaccharide-stimulated bone marrow-derived dendritic cells” (Bioorg Med Chem Lett, 2013).

Key:
Conditions in all cases: bmdc
[1] = Antiinflammatory activity in wild-type C57BL/6 mouse BMDCs assessed as inhibition of TNFalpha production incubated for 1 hr prior to LPS challenge measured after 16 hrs by ELISA; assay type: functional
[2] = Antiinflammatory activity in wild-type C57BL/6 mouse BMDCs assessed as inhibition of IL-6 production incubated for 1 hr prior to LPS challenge measured after 16 hrs by ELISA; assay type: functional
[3] = Antiinflammatory activity in wild-type C57BL/6 mouse BMDCs assessed as inhibition of IL-12 p40 production incubated for 1 hr prior to LPS challenge measured after 16 hrs by ELISA; assay type: functional
[4] = Cytotoxicity against wild-type C57BL/6 mouse BMDCs assessed as cell viability by MTT assay

Row | Structure (SMILES) | IC50 [1] [µM] | IC50 [2] [µM] | IC50 [3] [µM] | Activity [4]
1 | CC(=O)c1[nH]ccc1O[C@@H]1O[C@H](C)[C@@H](O[C@@H]2O[C@H](C)[C@H](O)[C@H](O[C@@H]3O[C@H](C)[C@H](O)[C@H](O)[C@H]3O)[C@H]2O)[C@H](O)[C@H]1O[C@@H]1O[C@H](C)[C@@H](O)[C@H](O)[C@H]1O | > 50 | > 50 | > 50 | Non-toxic
2 | CC(=O)c1[nH]ccc1O[C@@H]1O[C@H](C)[C@@H](O[C@@H]2O[C@H](C)[C@H](O)[C@H](O[C@@H]3O[C@H](C)[C@H](O)[C@H](O[C@@H]4O[C@@H](CO)[C@H](O)[C@H]4O)[C@H]3O)[C@H]2O)[C@H](O)[C@H]1O[C@@H]1O[C@H](C)[C@@H](O)[C@H](O)[C@H]1O [ASTEBATHERIOSIDE A] | > 50 | > 50 | > 50 | Non-toxic
3 | CC(=O)c1[nH]ccc1O[C@@H]1O[C@H](C)[C@@H](O[C@H]2OC[C@H](O)[C@H](O)[C@H]2O[C@@H]2O[C@H](C)[C@H](O)[C@H](O[C@@H]3O[C@@H](CO)[C@H](O)[C@H]3O)[C@H]2O)[C@H](O)[C@H]1O[C@@H]1O[C@H](C)[C@@H](O)[C@H](O)[C@H]1O [ASTEBATHERIOSIDE B] |  |  | 36.4 | Non-toxic
4 | C[S+]([O-])c1ccc(-c2nc(-c3ccc(F)cc3)c(-c3ccncc3)[nH]2)cc1 (stereo not given) [SB-203580] |  |  | 5 | 

More lines, in order of falling IC50 [3], values ahead:

Row | IC50 [1] [µM] | IC50 [2] [µM] | IC50 [3] [µM] | Structure (SMILES) | Activity [4]
5 |  |  | 31.6 | CC(=O)c1[nH]ccc1O[C@@H]1O[C@H](C)[C@@H](O)[C@H](O)[C@H]1O[C@@H]1O[C@H](C)[C@@H](O)[C@H](O)[C@H]1O [ASTEBATHERIOSIDE C] | Non-toxic
6 |  |  | 22.8 | CC(=O)c1occc1O[C@@H]1O[C@H](C)[C@@H](O[C@@H]2O[C@H](C)[C@H](O)[C@H](O[C@@H]3O[C@H](C)[C@H](O)[C@H](O)[C@H]3O)[C@H]2O)[C@H](O)[C@H]1O[C@@H]1O[C@H](C)[C@@H](O)[C@H](O)[C@H]1O [ASTEBATHERIOSIDE D] | Non-toxic
